{
  "source": "paper PMC7642425",
  "about": "“Engineering cofactor supply and NADH-dependent D-galacturonic acid reductases for redox-balanced production of L-galactonate in Saccharomyces cerevisiae” (Scientific Reports, 2020)",
  "key": {"[1]": {"target": "T1, AnGar1 (Aspergillus niger, UniProt A2R7U3)", "T1 construct": "gene An16g04770; synthetic ORF codon optimized for S. cerevisiae; expressed from plasmid in yeast CEN.PK2-1C, clear crude extract assayed against empty-vector control", "T1 sequence (A2R7U3 1-319)": "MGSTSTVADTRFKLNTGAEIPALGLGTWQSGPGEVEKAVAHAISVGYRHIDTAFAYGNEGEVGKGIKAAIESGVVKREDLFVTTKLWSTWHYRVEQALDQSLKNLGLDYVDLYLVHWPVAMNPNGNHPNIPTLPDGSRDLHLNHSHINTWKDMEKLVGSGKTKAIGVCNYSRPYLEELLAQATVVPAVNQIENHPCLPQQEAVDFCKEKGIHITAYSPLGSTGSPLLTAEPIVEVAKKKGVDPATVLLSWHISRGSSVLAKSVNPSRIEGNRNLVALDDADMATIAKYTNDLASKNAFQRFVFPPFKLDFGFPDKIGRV", "assay": "NADH oxidation at […] nm, yeast crude extract", "type": "biochemical", "settings": "160 or 800 uM NADH, 100 mM GalA, 10 mM potassium phosphate pH 7.2; competitive"}, "[2]": {"target": "T1, AnGar1", "assay": "NAD(P)H oxidation at […] nm, yeast crude extract; HPLC of L-galactonate in cultures", "type": "biochemical", "settings": "100 mM GalA, NADPH, 10 mM potassium phosphate pH 7.2"}, "[3]": {"target": "T2, AnGaaA (Aspergillus niger, UniProt A8DRH9)", "T2 construct": "gene gaaA; synthetic ORF codon optimized for S. cerevisiae; expressed from multicopy plasmid in yeast; whole-cell conversion", "T2 sequence (A8DRH9 1-412)": "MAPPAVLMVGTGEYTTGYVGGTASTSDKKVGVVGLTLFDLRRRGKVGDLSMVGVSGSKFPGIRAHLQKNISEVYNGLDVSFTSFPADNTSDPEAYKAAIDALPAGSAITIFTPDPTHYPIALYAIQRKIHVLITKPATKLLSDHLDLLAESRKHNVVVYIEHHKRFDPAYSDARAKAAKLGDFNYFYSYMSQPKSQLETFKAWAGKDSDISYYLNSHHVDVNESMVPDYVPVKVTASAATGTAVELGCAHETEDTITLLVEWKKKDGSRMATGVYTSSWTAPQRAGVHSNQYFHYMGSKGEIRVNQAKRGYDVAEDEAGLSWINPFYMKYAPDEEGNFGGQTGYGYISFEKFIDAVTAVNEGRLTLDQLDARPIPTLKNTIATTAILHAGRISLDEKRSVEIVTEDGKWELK", "assay": "HPLC of L-galactonate in cultures of expressing yeast", "type": "cell-based", "settings": "whole cells, sorbitol co-substrate, YlSdr supplying NADPH, pH 6.3, 30 °C"}, "[4]": {"target": "T3, TrGar1 (Trichoderma reesei, UniProt Q3ZFI7)", "T3 construct": "gene gar1; synthetic ORF codon optimized for S. cerevisiae; expressed in yeast strains co-expressing GatA, Hxt13 and sorbitol dehydrogenase; whole-cell conversion", "T3 sequence (Q3ZFI7 1-309)": "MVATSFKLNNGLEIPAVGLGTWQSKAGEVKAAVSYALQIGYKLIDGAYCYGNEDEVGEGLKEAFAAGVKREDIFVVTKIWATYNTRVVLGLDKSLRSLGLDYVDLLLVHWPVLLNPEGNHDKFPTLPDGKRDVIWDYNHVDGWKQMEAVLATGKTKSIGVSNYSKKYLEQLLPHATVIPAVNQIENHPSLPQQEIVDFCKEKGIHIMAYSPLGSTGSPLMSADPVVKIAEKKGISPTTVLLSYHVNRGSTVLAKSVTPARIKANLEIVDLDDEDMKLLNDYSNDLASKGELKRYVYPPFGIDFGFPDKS", "assay": "HPLC of L-galactonate in cultures of expressing yeast", "type": "cell-based", "settings": "whole cells, sorbitol co-substrate, YlSdr supplying NADPH, pH 6.3, 30 °C"}, "[5]": {"target": "T1, AnGar1", "assay": "NADPH oxidation at […] nm, yeast crude extract", "type": "biochemical", "settings": "100 mM GalA, 160 or 800 uM NADPH, 10 mM potassium phosphate pH 7.2"}},
  "data": [
    {"smiles": "NC(=O)c1ccc[n+]([C@@H]2O[C@H](COP(=O)(O)OP(=O)(O)OC[C@H]3O[C@@H](n4cnc5c(N)ncnc54)[C@H](OP(=O)(O)O)[C@@H]3O)[C@@H](O)[C@H]2O)c1", "note": "[NADP]", "values": [
      {"measurement": "relative activity (% of activity without NADP)", "setting": "[1]", "result": "when NADP was added to competitively inhibit NADH binding, only the mutants were able"}
    ]},
    {"smiles": "O=C(O)[C@H]1OC(O)[C@H](O)[C@@H](O)[C@H]1O", "note": "(stereo partly drawn) [D-galacturonic acid]", "values": [
      {"measurement": "NAD(P)H oxidation at 340 nm, yeast crude extract; HPLC of L-galactonate in cultu", "setting": "[2]", "result": "we demonstrate, for the first time, the activity of AnGar1 as a GalA reductase"},
      {"measurement": "HPLC of L-galactonate in cultures of expressing yeast", "setting": "[3]", "result": "The lower titers observed with AnGaaA in comparison to TrGar1"},
      {"measurement": "HPLC of L-galactonate in cultures of expressing yeast", "setting": "[4]", "result": "Wildtype TrGar1 and AnGar1 produce comparable amount of GalOA"}
    ]},
    {"smiles": "NC(=O)C1=CN([C@@H]2O[C@H](COP(=O)(O)OP(=O)(O)OC[C@H]3O[C@@H](n4cnc5c(N)ncnc54)[C@H](OP(=O)(O)O)[C@@H]3O)[C@@H](O)[C@H]2O)C=CC1", "note": "[NADPH]", "values": [
      {"measurement": "NADPH oxidation at 340 nm, yeast crude extract", "setting": "[5]", "result": "lower compared to those with NADPH of the wildtype enzyme"}
    ]}
  ]
}
